Test results published in US20250353863A1, “TRICYCLIC SPIROLACTAM COMPOUNDS WITH ANTIMYCOBACTERIAL ACTIVITY” (priority 2022, published 2025).
In brackets after ≈: the same amount, converted by molar mass.

These molecules were tested on Mtb H37Rv-WT (assay: MIC by resazurin microtiter assay (REMA) against Mtb). Conditions: Mycobacterium tuberculosis, 144 h, REMA, 37° C., 6 days, read-out: MIC (μM) H37Rv-WT.
Format: cell-based

**Q.** CC(C)[C@H]1CO[C@]23CCN(Cc4ccc(Cl)c(Cl)c4)C[C@H]2CCC(=O)N13 [(3S,7aR,11aR)-9-[(3,4-dichlorophenyl)methyl]-3-isopropyl-2,3,6,7,7a,8,10,11-octahydrooxazolo[2,3-j][1,6]naphthyridin-5-one] was tested. Which MIC did it give?
**A.** < 1 µM

**Q.** With CC(C)[C@H]1CO[C@]23CCN(S(=O)(=O)Cc4ccc(C(F)(F)F)cc4)C[C@H]2CCC(=O)N13 as the molecule, how does the MIC read?
**A.** < 1 µM

**Q.** For CC(C)[C@H]1CO[C@]23CCN(CC4CCCCO4)C[C@H]2CCC(=O)N13 (stereo partly drawn) [(3S,7aR,11aR)-3-isopropyl-9-(tetrahydropyran-2-ylmethyl)-2,3,6,7,7a,8,10,11-octahydrooxazolo[2,3-j][1,6]naphthyridin-5-one], which MIC is on record?
**A.** 1 to 10 µM (≈ 0.336 to 3.36 µg/mL)

**Q.** CC(C)[C@H]1CO[C@]23CCN(CCCc4ccc(C(F)(F)F)cc4)C[C@H]2CCC(=O)N13 [(3S,7aR,11aR)-3-isopropyl-9-[3-[4-(trifluoromethyl)phenyl]propyl]-2,3,6,7,7a,8,10,11-octahydrooxazolo[2,3-j][1,6]naphthyridin-5-one] was tested. Which MIC did it give?
**A.** < 1 µM

**Q.** With CC(C)[C@H]1CO[C@]23CCN(Cc4cc(C(F)(F)F)nc5ccccc45)C[C@H]2CCC(=O)N13 [(3S,7aR,11aR)-3-isopropyl-9-[[2-(trifluoromethyl)-4-quinolyl]methyl]-2,3,6,7,7a,8,10,11-octahydrooxazolo[2,3-j][1,6]naphthyridin-5-one] as the molecule, how does the MIC read?
**A.** < 1 µM

**Q.** With CC(C)[C@H]1CO[C@]23CCN(Cc4ccc(C(F)(F)F)cc4C(F)(F)F)C[C@H]2CCC(=O)N13 [(3S,7aR,11aR)-9-[[2,4-bis(trifluoromethyl)phenyl]methyl]-3-isopropyl-2,3,6,7,7a,8,10,11-octahydrooxazolo[2,3-j][1,6]naphthyridin-5-one] as the molecule, how does the MIC read?
**A.** < 1 µM

**Q.** Which MIC does the source give for CC[C@@H]1C[C@@H]2CN(Cc3ccc(C(F)(F)F)cc3)CC[C@@]23OC[C@H](C(C)C)N3C1=O [(3S,6R,7aR,11aR)-6-ethyl-3-isopropyl-9-[[4-(trifluoromethyl)phenyl]methyl]-2,3,6,7,7a,8,10,11-octahydrooxazolo[2,3-j][1,6]naphthyridin-5-one] here?
**A.** < 1 µM

**Q.** For CC(C)[C@H]1CO[C@]23CCN(Cc4ccc(C(F)(F)F)cc4)C[C@H]2CCC(=O)N13 [(3S,7aR,11aR)-3-isopropyl-9-[[4-(trifluoromethyl)phenyl]methyl]-2,3,6,7,7a,8,10,11-octahydrooxazolo[2,3-j][1,6]naphthyridin-5-one], which MIC is on record?
**A.** < 1 µM

**Q.** For CC(C)[C@H]1CO[C@]23CCN(C(=O)OCCc4ccc(C(F)(F)F)cc4)C[C@H]2CCC(=O)N13, which MIC is on record?
**A.** 1 to 10 µM (≈ 0.454 to 4.54 µg/mL)

**Q.** How did the MIC turn out when O=C1CC[C@@H]2CN(Cc3ccccc3)CC[C@@]23OC[C@H](C2CC2)N13 [(3S,7aR,11aR)-9-benzyl-3-cyclopropyl-2,3,6,7,7a,8,10,11-octahydrooxazolo[2,3-j][1,6]naphthyridin-5-one] was run?
**A.** > 10 µM

**Q.** CC(C)[C@H]1CO[C@]23CCN(C(=O)Cc4ccc(C(F)(F)F)cc4)C[C@H]2CCC(=O)N13 [(3S,7aR,11aR)-3-isopropyl-9-[2-[4-(trifluoromethyl)phenyl]acetyl]-2,3,6,7,7a,8,10,11-octahydrooxazolo[2,3-j][1,6]naphthyridin-5-one] was tested. Which MIC did it give?
**A.** > 10 µM

**Q.** Which MIC does the source give for CC(C)[C@H]1CO[C@]23CCN(Cc4ccc(C(F)(F)F)cc4)[C@H]2CCC(=O)N13 [(1R,4S,9S)-4-isopropyl-10-[[4-(trifluoromethyl)phenyl]methyl]-2-oxa-5,10-diazatricyclo[7.3.0.01,5]dodecan-6-one] here?
**A.** < 1 µM

**Q.** With CC(C)[C@H]1CO[C@]23CCN(Cc4ccc(C(F)(F)F)cc4)C[C@H]2C[C@H](C)C(=O)N13 (single isomer, unassigned) as the molecule, how does the MIC read?
**A.** 1 to 10 µM (≈ 0.41 to 4.1 µg/mL)

**Q.** Which MIC does the source give for O=C1CC[C@@H]2CN(Cc3ccccc3)CC[C@@]23N[C@H]2CCCC[C@@H]2N13 [(1S,6R,11S,16S)-4-benzyl-4,10,17-triazatetracyclo[8.7.0.01,6.011,16] heptadecan-9-one] here?
**A.** > 10 µM

**Q.** CC(C)[C@H]1CO[C@]23CCN(Cc4ccc(OC(F)(F)F)cc4)C[C@H]2CCC(=O)N13 was tested. Which MIC did it give?
**A.** < 1 µM

**Q.** How did the MIC turn out when CC(C)C[C@@H]1C[C@@H]2CN(Cc3ccc(C(F)(F)F)cc3)CC[C@@]23OC[C@H](C(C)C)N3C1=O [(3S,6R,7aR,11aR)-6-isobutyl-3-isopropyl-9-[[4-(trifluoromethyl)phenyl]methyl]-2,3,6,7,7a,8,10,11-octahydrooxazolo[2,3-j][1,6]naphthyridin-5-one] was run?
**A.** > 10 µM

**Q.** Which MIC does the source give for C=CC[C@H]1C[C@@H]2CN(Cc3ccc(C(F)(F)F)cc3)CC[C@@]23OC[C@H](C(C)C)N3C1=O [(3S,6S,7aR,11aR)-6-allyl-3-isopropyl-9-[[4-(trifluoromethyl)phenyl]methyl]-2,3,6,7,7a,8,10,11-octahydrooxazolo[2,3-j][1,6]naphthyridin-5-one] here?
**A.** > 10 µM

**Q.** Which MIC does the source give for CC(C)[C@H]1CO[C@]23CCN(Cc4ccc(N5CCCCC5)cc4)C[C@H]2CCC(=O)N13 [(3S,7aR,11aR)-3-isopropyl-9-[[4-(1-piperidyl)phenyl]methyl]-2,3,6,7,7a,8,10,11-octahydrooxazolo[2,3-j][1,6]naphthyridin-5-one] here?
**A.** 1 to 10 µM (≈ 0.412 to 4.12 µg/mL)

**Q.** How did the MIC turn out when CC(C)[C@H]1CO[C@]23CC[C@H](N(Cc4ccc(C(F)(F)F)cc4)Cc4ccc(C(F)(F)F)cc4)C[C@H]2CCC(=O)N13 was run?
**A.** < 1 µM

**Q.** For CC(C)[C@H]1CO[C@]23CCN(C(=O)OCc4ccc(C(F)(F)F)cc4)C[C@H]2CCC(=O)N13 [[4-(trifluoromethyl)phenyl]methyl (3S,7aR,11aR)-3-isopropyl-5-oxo-2,3,6,7,7a,8,10,11-octahydrooxazolo[2,3-j][1,6]naphthyridine-9-carboxylate], which MIC is on record?
**A.** 1 to 10 µM (≈ 0.44 to 4.4 µg/mL)

**Q.** With CC(C)[C@H]1CO[C@]23CCN(c4ccc(C(F)(F)F)cc4)C[C@H]2CCC(=O)N13 [(3S,7aR,11aR)-3-isopropyl-9-[4-(trifluoromethyl)phenyl]-2,3,6,7,7a,8,10,11-octahydrooxazolo[2,3-j][1,6]naphthyridin-5-one] as the molecule, how does the MIC read?
**A.** 1 to 10 µM (≈ 0.382 to 3.82 µg/mL)

**Q.** Which MIC does the source give for O=C1CC[C@@H]2CN(Cc3ccc(C(F)(F)F)cc3)CC[C@@]23OC[C@H](C(F)(F)F)N13 [(3R,7aR,11aR)-3-(trifluoromethyl)-9-[[4-(trifluoromethyl)phenyl]methyl]-2,3,6,7,7a,8,10,11-octahydrooxazolo[2,3-j][1,6]naphthyridin-5-one] here?
**A.** > 10 µM

**Q.** Which MIC does the source give for CC(C)[C@H]1CO[C@]23CCN(Cc4ccc(N5CCC(Oc6ccc(OC(F)(F)F)cc6)CC5)cc4)C[C@H]2CCC(=O)N13 [(3S,7aR,11aR)-3-isopropyl-9-[[4-[4-[4-(trifluoromethoxy)phenoxy]-1-piperidyl]phenyl]methyl]-2,3,6,7,7a,8,10,11-octahydrooxazolo[2,3-j][1,6]naphthyridin-5-one] here?
**A.** < 1 µM

**Q.** With CC[C@H]1C[C@@H]2CN(Cc3ccc(C(F)(F)F)cc3)CC[C@@]23OC[C@H](C(C)C)N3C1=O [(3S,6S,7aR,11aR)-6-ethyl-3-isopropyl-9-[[4-(trifluoromethyl)phenyl]methyl]-2,3,6,7,7a,8,10,11-octahydrooxazolo[2,3-j][1,6]naphthyridin-5-one] as the molecule, how does the MIC read?
**A.** > 10 µM

**Q.** CC(C)[C@H]1CO[C@]23CCN(Cc4nccn4C)C[C@H]2CCC(=O)N13 [(3S,7aR,11aR)-3-isopropyl-9-[(1-methylimidazol-2-yl)methyl]-2,3,6,7,7a,8,10,11-octahydrooxazolo[2,3-j][1,6]naphthyridin-5-one] was tested. Which MIC did it give?
**A.** 1 to 10 µM (≈ 0.332 to 3.32 µg/mL)

**Q.** For CC(C)[C@H]1CO[C@]23CCN(C(=O)C(F)(F)c4ccc(C(F)(F)F)cc4)C[C@H]2CCC(=O)N13 [(3S,7aR,11aR)-9-[2,2-difluoro-2-[4-(trifluoromethyl)phenyl]acetyl]-3-isopropyl-2,3,6,7,7a,8,10,11-octahydrooxazolo[2,3-j][1,6]naphthyridin-5-one], which MIC is on record?
**A.** > 10 µM

**Q.** Which MIC does the source give for CC(C)[C@H]1CO[C@]23CCN(Cc4ccccc4)C[C@H]2CC(=O)N13 [(1R,4S,8R)-10-benzyl-4-isopropyl-2-oxa-5,10-diazatricyclo[6.4.0.01,5]dodecan-6-one] here?
**A.** 1 to 10 µM (≈ 0.314 to 3.14 µg/mL)

**Q.** With CC(C)[C@H]1CO[C@]23CCN(C(=O)OCCCc4ccc(C(F)(F)F)cc4)C[C@H]2CCC(=O)N13 as the molecule, how does the MIC read?
**A.** 1 to 10 µM (≈ 0.469 to 4.69 µg/mL)

**Q.** With CC(C)[C@H]1CO[C@]23CCN(CC4CCCO4)C[C@H]2CCC(=O)N13 (stereo partly drawn) [(3S,7aR,11aR)-3-isopropyl-9-(tetrahydrofuran-2-ylmethyl)-2,3,6,7,7a,8,10,11-octahydrooxazolo[2,3-j][1,6]naphthyridin-5-one] as the molecule, how does the MIC read?
**A.** > 10 µM

**Q.** With CC(C)[C@H]1CO[C@]23CCN(Cc4cccc(Oc5ccccc5)c4)C[C@H]2CCC(=O)N13 [(3S,7aR,11aR)-3-isopropyl-9-[(3-phenoxyphenyl)methyl]-2,3,6,7,7a,8,10,11-octahydrooxazolo[2,3-j][1,6]naphthyridin-5-one] as the molecule, how does the MIC read?
**A.** < 1 µM

**Q.** CC(C)[C@H]1CO[C@]23CCN(S(=O)(=O)CCc4ccc(C(F)(F)F)cc4)C[C@H]2CCC(=O)N13 [(3S,7aR,11aR)-3-isopropyl-9-[2-[4-(trifluoromethyl)phenyl]ethylsulfonyl]-2,3,6,7,7a,8,10,11-octahydrooxazolo[2,3-j][1,6]naphthyridin-5-one] was tested. Which MIC did it give?
**A.** < 1 µM

**Q.** Which MIC does the source give for CC(C)[C@H]1CO[C@]23CCN(Cc4ccc(C(F)(F)F)cc4)C[C@H]2CC(F)(F)C(=O)N13 [(3S,7aR,11aR)-6,6-difluoro-3-isopropyl-9-[[4-(trifluoromethyl)phenyl]methyl]-3,7,7a,8,10,11-hexahydro-2H-oxazolo[2,3-j][1,6]naphthyridin-5-one] here?
**A.** < 1 µM

Same assay, conditions: Mycobacterium tuberculosis, REMA, read-out: MIC M. tuberculosis

**Q.** With CC(C)[C@H]1CO[C@]23CCN(CCc4ccc(C(F)(F)F)cc4)C[C@H]2CCC(=O)N13 [Example 38, (3S,7aR,11aR)-3-isopropyl-9-[2-[4-(trifluoromethyl)phenyl]ethyl]-2,3,67,7a,8,10,11-octahydrooxazolo[2,3-j][1,6]naphthyridin-5-one] as the molecule, how does the MIC read?
**A.** < 1 µM

**Q.** For CC(C)[C@H]1CO[C@]23CCN(CCCc4ccc(C(F)(F)F)cc4)C[C@H]2CCC(=O)N13 [Example 39, (3S,7aR,11aR)-3-isopropyl-9-[3-[4-(trifluoromethyl)phenyl]propyl]-2,3,6,7,7a,8,10,11-octahydrooxazolo[2,3-j][1,6]naphthyridin-5-one], which MIC is on record?
**A.** < 1 µM

**Q.** For CC(C)[C@H]1CO[C@]23CCN(Cc4cc(C(F)(F)F)nc5ccccc45)C[C@H]2CCC(=O)N13 [Example 25, (3S,7aR,11aR)-3-isopropyl-9-[[2-(trifluoromethyl)-4-quinolyl]methyl]-2,3,6,7,7a,8,10,11-octahydrooxazolo[2,3-j][1,6]naphthyridin-5-one], which MIC is on record?
**A.** < 1 µM
